In PMC10035370, “Targeting Tumor Angiogenesis with the Selective VEGFR-3 Inhibitor EVT801 in Combination with Cancer Immunotherapy” (Cancer Research Communications, 2022):

Legend:
Format in all cases: in vivo, mice
[1] = system: RT-HAM-001 tumors; assay: RT-001-HAM subcutaneous patient-derived xenograft tumor mouse model; conditions: 30 mg/kg twice per day, 7-day treatment
Procedure: Patient-derived tumors of the same passage were transplanted subcutaneously outbred athymic (nu/nu) female HSD mice. When tumor volume reached 726 to 1,437 mm^3, 4 donor mice were sacrificed by cervical dislocation, and tumors were aseptically excised and dissected. After removing necrotic areas, tumor fragments of approximately 20 mm^3 were transferred to culture medium before grafting. A total of 108 mice were anesthetized with 100 mg/kg ketamine hydrochloride (Virbac) and 10 mg/kg xylazine (Bayer). Then, a tumor fragment was placed in the subcutaneous tissue of an incision at the level of the interscapular region as described previously ([30]). All mice from the same experiment were implanted on the same day. A total of 54 mice with RT-001-HAM established growing tumor (P6.0.0/0) between 62.5 and 196 mm^3 were allocated according to tumor volume, ensuring homogenous median and mean tumor volume in each treatment arm. Treatments with 5 mL/kg vehicle, 30 mg/kg EVT801, or 30 mg/kg pazopanib started 15 days after tumor implantation and continued twice per day until termination 7 days later. Tumor volumes were measured via a caliper three times a week during the treatment period. All animals were weighed at the same time as tumor size measurement. Plasma and fresh tumor samples were collected at different timepoints after final dose at day 7 from all mice.

[2] = system: DEN-induced liver tumor; assay: N-diethylnitrosamine-induced hepatocarcinoma mouse model; conditions: daily doses of 100 mg/kg for 2 months
Procedure: After weighing, 38 male C3/H mice received a 10 mg/kg dose of N-diethylnitrosamine (DEN) intraperitoneally, whereas a group of 5 animals was kept without DEN injection as control group. After 12 months, mice that received DEN injection were randomized by weight in two groups of each 19 animals. The mice were dosed daily orally for 2 months either with EVT801 or vehicle. On the day of termination, mice treated with EVT801 received a last dose of 30 mg/kg to take blood and tumor samples for compound concentration determination. After incision of the peritoneal cavity, blood was taken from the vena cava. Following excision and weighing of the liver, the number of tumors per liver was counted. The tumor burden was calculated as the sum of individual tumor volumes for each mouse. No blood sampling was performed on control and vehicle groups. Plasma and tumor samples were stored at −20°C until analysis. Concentration of EVT801 was determined by LC/MS-MS.

[3] = system: 4T1 tumors; assay: 4T1 mammary carcinoma mouse model, with anti-CTLA-4
Procedure: The 4T1 mammary carcinoma mouse models were used as reported previously ([26]). Briefly, 1 × 10^5 4T1 cells were implanted into mammary fat pads of BALB/c mice. […] Tumors were measured two to three times weekly with calipers. The tumor volume (V) was calculated using the formula V = 0.52 × a^2 × b (a: smallest tumor diameter; b: largest tumor diameter). The tumors, lungs, and axillary lymph nodes were removed at day 21 for treatment with anti-PD-1, and day 28 for treatment with anti-CTLA-4. The tumors and the lungs were embedded in paraffin for histology studies. Intraperitoneal injection (10 mg/kg of antibody diluted at 1 mg/mL) was performed at day 6, day 11, and day 16 for treatment with anti-PD-1, and at day 6, day 11, day 16, and day 21 for treatment with anti-CTL-4 by using a 26G needle fitted to a plastic syringe in the right lower quarter of mice abdomen. The metastatic scoring was determined as follows: (0) no metastasis; ([1]) 1 to 20 metastases < 50 μm; ([2]) between 21 and 50 metastases < 50 μm; ([3]) 1 or more metastases > […]; ([4]) 1 or more metastases > […].
Whole blood samples were treated twice with ACK lysing buffer (Thermo Fisher Scientific, A1049201) to lyse red blood cells. Cell suspension were incubated for 15 minutes on ice in blocking buffer (FACS buffer: PBS 1 X, 1% FBS, 5 mmol/L Ethylene Diamine Tetra acetic Acid (EDTA) containing 3% rat serum, 3% mouse serum, 1:660 FC blocking antibody). Cell suspension were stained with an antibody mix either for myeloid-derived suppressor cell (MDSC) staining [anti-CD45 PE-Vio770 (Miltenyi Biotec, 130-110-799), anti-CD11b APC (eBioscience, 17-0112-82), anti-Ly6C AF700 (BD, 561237), anti-Ly6G BV421 (BD, 562737), anti-F4/80 BV510 (BD, 743280), anti-IA/I-E (MHCII), PercpCy5.5 (BD, 562363), anti-CD124 PE (BioLegend, 144804) or anti-rat IgG2bPE (Ozyme, BLE400608) isotype control, and the green fluorescent reactive dye (Thermo Fisher Scientific, L34960)], or for T-cell staining [anti-CD45 PE-Vio770 (Miltenyi Biotec, 130-110-799), anti-Thy1 APC-Cy7 (BioLegend, 105328), anti-CD4 PercpVio-700 (Miltenyi Biotec, 130-109-497), anti-CD8 BV510 (BD, 563068), anti-CD69 BV421 (BD 562920) or anti-rat IgG1a-BV421 (BD, 562919), and the green fluorescent reactive dye (Thermo Fisher Scientific, L34960)]. After incubation for 30 minutes at 4°C in the dark, cells were washed and suspended in FACS buffer. A total of 50 μL of CountBright Absolute counting beads (Thermo Fisher Scientific, C36950) were added just before cell acquisition on a FACS Fortessa X20 (Becton Dickinson). Analysis was performed with the FlowJo software. For calculation of cell concentration, the following formula was used: Concentration of cells/μL = (number of cell events/number of bead events) × (assigned bead count of the lot/volume of analyzed sample). Monocytic MDSCs (M-MDSC) were characterized as MHC-II^neg/CD11b^+/Ly6C^+/Ly6G^neg, whereas polymorphonuclear MDSCs (PMN-MDSC) were characterized as MHC-II^neg/CD11b^+/Ly6C^neg/Ly6G^+, as described previously ([31]). Among those populations, CD124^+ cells were considered as the activated subpopulations ([32]).
Blood was centrifuged at 8,000 rpm, for 5 minutes, at 4°C and the plasma was collected by harvesting the supernatant and stored at −80°C. Plasma samples were thawed at 4°C extemporaneously for MesoScale Discovery (MSD) analysis on a U-PLEX-4 Assay coated plate (U-PLEX Mouse KC, U-PLEX Mouse MIP-1α/CCL3, U-PLEX Mouse MIP-1β/CCL4, U-PLEX Mouse Rantes/CCL5 K15069L-1, Meso Scale Discovery). Analysis was performed following manufacturer's instructions.

[4] = endpoint, 30 mg/kg twice per day

Compound: CCn1c(N)c(-c2ncc[nH]2)c(=O)c2ccc(C#C[C@@](C)(O)COC)nc21 [EVT801]
- T/C ratio, tumor volume [1]: 41%
- size of necrotic areas in tumors [1]: decreased
- hypoxic areas (CAIX) in tumors ([1]; not statistically significant): appeared to decrease hypoxia in half of the tumors
- T/C ratio, tumor volume [2]: 22%
- liver weight [2]: fully prevented the increase in liver weight
- reduction in circulation of each activated (CD124+) MDSC subpopulation (PMN-MDSCs, M-MDSCs) in the blood ([3]; 14 hours after the last dosing): 2 fold
- increase in number of circulating CD8+ T cells ([3]; endpoint): 30%
- change in circulating CCL4 levels [3, 4]: −50%
- change in circulating CCL5 levels [3, 4]: −30%
- circulating CCL3 levels [3, 4]: unchanged
- T/C ratio, tumor growth ([3]; orthotopic, EVT801 30 mg/kg twice per day, anti-CTLA-4 twice per week, or both): 53%
